Experimental data as given in the NIST ThermoML archive (doi:10.1016/j.fluid.2014.04.002).

Assay: xn = mol fraction of the nth substance listed
Conditions: 101 kPa, Liquid; for viscosity: Concentric cylinders viscometry; for mass density: Vibrating tube method

CCOC(=O)C(C)O (stereo not drawn) [DL-ethyl lactate] + OCCCO
Conditions	mass density [kg/m3]	viscosity [mPa·s]
288.15 K, x1 = 0.1001	1056.19	51.26
288.15 K, x1 = 0.2001	1055.73	38.55
288.15 K, x1 = 0.3	1054.58	28.06
288.15 K, x1 = 0.3998	1053.41	20.15
288.15 K, x1 = 0.4996	1051.81	14.63
288.15 K, x1 = 0.5997	1049.85	10.55
288.15 K, x1 = 0.7	1047.67	7.714
288.15 K, x1 = 0.8	1045.16	5.639
288.15 K, x1 = 0.8997	1042.56	4.327
288.15 K, x1 = 1	1039.28	3.207
293.15 K, x1 = 0.1001	1052.84	40.04
293.15 K, x1 = 0.2001	1052.12	30.14
293.15 K, x1 = 0.3	1050.74	22.16
293.15 K, x1 = 0.3998	1049.3	16.06
293.15 K, x1 = 0.4996	1047.46	11.78
293.15 K, x1 = 0.5997	1045.28	8.579
293.15 K, x1 = 0.7	1042.88	6.35
293.15 K, x1 = 0.8	1040.14	4.704
293.15 K, x1 = 0.8997	1037.34	3.583
293.15 K, x1 = 1	1033.84	2.75
298.15 K, x1 = 0.1001	1049.47	31.54
298.15 K, x1 = 0.2001	1048.48	23.97
298.15 K, x1 = 0.3	1046.87	17.76
298.15 K, x1 = 0.3998	1045.13	12.92
298.15 K, x1 = 0.4996	1043.1	9.585
298.15 K, x1 = 0.5997	1040.69	7.071
298.15 K, x1 = 0.7	1038.07	5.296
298.15 K, x1 = 0.8	1035.11	3.974
298.15 K, x1 = 0.8997	1032.1	3.071
298.15 K, x1 = 1	1028.39	2.39
303.15 K, x1 = 0.1001	1046.08	25.3
303.15 K, x1 = 0.2001	1044.83	19.39
303.15 K, x1 = 0.3	1042.98	14.35
303.15 K, x1 = 0.3998	1041.02	10.58
303.15 K, x1 = 0.4996	1038.71	7.942
303.15 K, x1 = 0.5997	1036.07	5.912
303.15 K, x1 = 0.7	1033.23	4.482
303.15 K, x1 = 0.8	1030.05	3.405
303.15 K, x1 = 0.8997	1026.83	2.661
303.15 K, x1 = 1	1022.92	2.097
308.15 K, x1 = 0.1001	1042.68	20.61
308.15 K, x1 = 0.2001	1041.16	15.81
308.15 K, x1 = 0.3	1039.07	11.84
308.15 K, x1 = 0.3998	1036.66	8.791
308.15 K, x1 = 0.4996	1034.3	6.65
308.15 K, x1 = 0.5997	1031.42	5.009
308.15 K, x1 = 0.7	1028.37	3.833
308.15 K, x1 = 0.8	1024.96	2.944
308.15 K, x1 = 0.8997	1021.54	2.329
308.15 K, x1 = 1	1017.42	1.858
313.15 K, x1 = 0.1001	1039.25	16.9
313.15 K, x1 = 0.2001	1037.46	13.04
313.15 K, x1 = 0.3	1035.13	9.826
313.15 K, x1 = 0.3998	1032.52	7.365
313.15 K, x1 = 0.4996	1029.86	5.624
313.15 K, x1 = 0.5997	1026.75	4.28
313.15 K, x1 = 0.7	1023.48	3.308
313.15 K, x1 = 0.8	1019.84	2.57
313.15 K, x1 = 0.8997	1016.22	2.056
313.15 K, x1 = 1	1011.9	1.658
318.15 K, x1 = 0.1001	1035.8	14
318.15 K, x1 = 0.2001	1033.74	10.86
318.15 K, x1 = 0.3	1031.16	8.236
318.15 K, x1 = 0.3998	1028.33	6.232
318.15 K, x1 = 0.4996	1025.39	4.805
318.15 K, x1 = 0.5997	1022.05	3.691
318.15 K, x1 = 0.7	1018.55	2.883
318.15 K, x1 = 0.8	1014.69	2.263
318.15 K, x1 = 0.8997	1010.87	1.83
318.15 K, x1 = 1	1006.36	1.491
323.15 K, x1 = 0.1001	1032.33	11.78
323.15 K, x1 = 0.2001	1030	9.189
323.15 K, x1 = 0.3	1027.16	7.027
323.15 K, x1 = 0.3998	1024.09	5.361
323.15 K, x1 = 0.4996	1020.89	4.174
323.15 K, x1 = 0.5997	1017.32	3.235
323.15 K, x1 = 0.7	1013.6	2.551
323.15 K, x1 = 0.8	1009.51	2.023
323.15 K, x1 = 0.8997	1005.5	1.648
323.15 K, x1 = 1	1000.79	1.349
